This assay relates to P388 leukemia ip, CD2F1 mice, survival T/C. Put plainly: NCI In Vivo Anticancer Drug Screen. Data for tumor model P388 Leukemia (intraperitoneal) in CD2F1 (CDF1) mice. The settings on record: endpoint: median survival time, higher = longer survival. A digest of the protocol: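 Mice carrying the transplanted tumor received test compound or vehicle. Survival was recorded in each group, and the value is the treated-group measurement divided by that of the vehicle-treated control group.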

Setting [1] is: dose: 12.5 mg/kg/injection, schedule: Q01DX005 (ip), vehicle: saline with Tween-80.
[2] abbreviates: dose: 25.0 mg/kg/injection, schedule: Q01DX005 (ip), vehicle: saline with Tween-80.
The mark [3] stands for this setting: dose: 50.0 mg/kg/injection, schedule: Q01DX005 (ip), vehicle: saline with Tween-80.
Setting [4] is: dose: 100.0 mg/kg/injection, schedule: Q01DX005 (ip), vehicle: saline with Tween-80.
The mark [5] stands for this setting: dose: 50.0 mg/kg/injection, schedule: Q01DX009 (ip), vehicle: saline with Tween-80.
[6] abbreviates: dose: 200.0 mg/kg/injection, schedule: Q01DX005 (ip), vehicle: saline with Tween-80.
The mark [7] stands for this setting: dose: 25.0 mg/kg/injection, schedule: Q01DX009 (ip), vehicle: other.
Setting [8] is: dose: 100.0 mg/kg/injection, schedule: Q01DX009 (ip), vehicle: saline.
[9] abbreviates: dose: 60.0 mg/kg/injection, schedule: Q01DX005 (ip), vehicle: saline with Tween-80.
Where [10] appears, read: dose: 120.0 mg/kg/injection, schedule: Q01DX005 (ip), vehicle: saline with Tween-80.
[11] abbreviates: dose: 240.0 mg/kg/injection, schedule: Q01DX005 (ip), vehicle: saline with Tween-80.

Structures are written as SMILES. “And” between values parts separate entries of the source, which are not always exact repeats. Equal values may be shown once. Inconclusive results and toxic doses are left out. Square brackets hold non-standard residues; d marks the D form. Peptide text beside a SMILES is read from it. ξ: configuration not given here. ξNva = CCCC(N)C(=O)O

Turning to `CNC(=O)OCc1c(COC(=O)NC)c(-c2ccccc2)n(-c2ccccc2)c1C`, the T/C is, setting by setting: under setting [1], 150 % of control; under setting [2], 169 % of control; under setting [3], 157 % of control and 176 % of control; under setting [4], 118 % of control.

Take `COc1cc2c(/C=N/Nc3ccccc3[N+](=O)[O-])c(Cl)[nH]c2cc1C`: the T/C by setting is: (dose: 50.0 mg/kg/injection, schedule: Q01DX001 (ip), vehicle: Klucel (hydroxypropylcellulose) (HPC)) 107 % of control; (dose: 100.0 mg/kg/injection, schedule: Q01DX001 (ip), vehicle: Klucel (hydroxypropylcellulose) (HPC)) 98 % of control and 87 % of control; (dose: 200.0 mg/kg/injection, schedule: Q01DX001 (ip), vehicle: Klucel (hydroxypropylcellulose) (HPC)) 98 % of control and 87 % of control; (dose: 400.0 mg/kg/injection, schedule: Q01DX001 (ip), vehicle: Klucel (hydroxypropylcellulose) (HPC)) 90 % of control.

Take `CC(=S)NC(=O)NC(=O)c1ccc(C)cc1`: the T/C is 102 % of control and 104 % of control (dose: 100.0 mg/kg/injection, schedule: Q01DX001 (ip), vehicle: saline); 112 % of control and 96 % of control (dose: 200.0 mg/kg/injection, schedule: Q01DX001 (ip), vehicle: saline); 112 % of control and 97 % of control (dose: 400.0 mg/kg/injection, schedule: Q01DX001 (ip), vehicle: saline).

Turning to `O=C(O)C(S(=O)(=O)O)S(=O)(=O)O`, the T/C was 103 % of control (dose: 1.56 mg/kg/injection, schedule: Q01DX001 (ip), vehicle: saline with Tween-80); 100 % of control (dose: 3.13 mg/kg/injection, schedule: Q01DX001 (ip), vehicle: saline with Tween-80); 100 % of control (dose: 6.25 mg/kg/injection, schedule: Q01DX001 (ip), vehicle: saline with Tween-80).

Consider `COC(=O)CC1(O)C=CC(=O)c2ccccc21` (stereo unspecified), for which the T/C is 94 % of control under setting [1], 100 % of control under setting [2], 109 % of control under setting [3] and 112 % of control under setting [4].

Take `O=C(CF)c1ccc(Cl)cc1`: the T/C runs as follows: under setting [5], 99 % of control; (dose: 100.0 mg/kg/injection, schedule: Q01DX009 (ip), vehicle: saline with Tween-80) 106 % of control; (dose: 200.0 mg/kg/injection, schedule: Q01DX009 (ip), vehicle: saline with Tween-80) 111 % of control.

For the compound `O=c1c(=O)c2cc(O)ccc12`, the T/C is 109 % of control under setting [3], 105 % of control under setting [4] and 100 % of control under setting [6].

`c1cc2c3c(c1)c1cc4c(cc1c[n+]3CC2)OCO4`: the T/C reads like this: under setting [7], 153 % of control; (dose: 25.0 mg/kg/injection, schedule: Q01DX009 (ip), vehicle: water) 91 % of control.

Take `COC(=O)[C@@]12OC[C@]34[C@H]([C@@H](O)[C@@H]1O)[C@@]1(C)CC(=O)C(O)=C(C)[C@@H]1C[C@H]3OC(=O)[C@H](OC(=O)CC(C)C)[C@@H]24`: the T/C was 110 % of control (dose: 0.12 mg/kg/injection, schedule: Q01DX009 (ip), vehicle: saline + alcohol) and 118 % of control (dose: 0.25 mg/kg/injection, schedule: Q01DX009 (ip), vehicle: saline + alcohol).

`CCCC(NC(=O)CNC(=O)CN)C(=O)O` (stereo not drawn) (H-Gly-Gly-[ξNva]-OH): the T/C runs as follows: (dose: 60.0 mg/kg/injection, schedule: Q01DX005 (ip), vehicle: saline) 98 % of control; (dose: 120.0 mg/kg/injection, schedule: Q01DX005 (ip), vehicle: saline) 106 % of control; (dose: 240.0 mg/kg/injection, schedule: Q01DX005 (ip), vehicle: saline) 106 % of control.

In the case of `O=C(CCc1ccc(O)cc1)c1c(O)cc(O)cc1O`, the T/C is 107 % of control under setting [3]; 112 % of control (dose: 50.0 mg/kg/injection, schedule: Q01DX009 (ip), vehicle: saline + alcohol); 108 % of control under setting [4]; 117 % of control (dose: 100.0 mg/kg/injection, schedule: Q01DX009 (ip), vehicle: saline + alcohol); 114 % of control under setting [6]; 108 % of control (dose: 200.0 mg/kg/injection, schedule: Q01DX009 (ip), vehicle: saline + alcohol). The T/C (dose: 400.0 mg/kg/injection, schedule: Q01DX005 (ip), vehicle: saline with Tween-80) was 114 % of control.

On to `CN(C)C(=S)c1cccc(-c2ccccn2)n1`, for which the T/C was 95 % of control (dose: 50.0 mg/kg/injection, schedule: Q04DX003 (ip), vehicle: Klucel (hydroxypropylcellulose) (HPC)); 96 % of control (dose: 100.0 mg/kg/injection, schedule: Q04DX003 (ip), vehicle: Klucel (hydroxypropylcellulose) (HPC)); 91 % of control (dose: 200.0 mg/kg/injection, schedule: Q04DX003 (ip), vehicle: Klucel (hydroxypropylcellulose) (HPC)).

On to `Cc1ccc(S(=O)(=O)C(CC(=O)CCN2CCCCC2)c2ccccc2)cc1` (stereo unspecified), for which the T/C was 102 % of control (dose: 50.0 mg/kg/injection, schedule: Q01DX009 (ip), vehicle: saline) and 96 % of control under setting [8].

For `CC(=O)c1ccc(N/N=[N+](/C)[O-])cc1`, the T/C reads like this: under setting [9], 99 % of control; under setting [10], 101 % of control; under setting [11], 99 % of control.

For the compound `c1ccc(-c2cc3cc4c(cc3[nH]2)Oc2ccccc2O4)cc1`, the T/C by setting is: (dose: 17.5 mg/kg/injection, schedule: Q01DX009 (ip), vehicle: Klucel (hydroxypropylcellulose) (HPC)) 100 % of control and 103 % of control and 109 % of control; (dose: 35.0 mg/kg/injection, schedule: Q01DX009 (ip), vehicle: Klucel (hydroxypropylcellulose) (HPC)) 100 % of control (2×) and 105 % of control; (dose: 70.0 mg/kg/injection, schedule: Q01DX009 (ip), vehicle: Klucel (hydroxypropylcellulose) (HPC)) 100 % of control and 103 % of control and 122 % of control; (dose: 140.0 mg/kg/injection, schedule: Q01DX009 (ip), vehicle: Klucel (hydroxypropylcellulose) (HPC)) 100 % of control.

Take `CCOCC(=O)OCC`: the T/C was 105 % of control under setting [8]; 101 % of control (dose: 200.0 mg/kg/injection, schedule: Q01DX009 (ip), vehicle: saline); 102 % of control (dose: 400.0 mg/kg/injection, schedule: Q01DX009 (ip), vehicle: saline).

In the case of `CCC(CCC(C)C1CCC2C3CC=C4CC(OP(=[Se])(c5ccccc5)c5ccccc5)CCC4(C)C3CCC12C)C(C)C` (stereo unspecified), the T/C (dose: 13.75 mg/kg/injection, schedule: Q01DX001 (ip), vehicle: Klucel (hydroxypropylcellulose) (HPC)) is 102 % of control; the T/C (dose: 27.5 mg/kg/injection, schedule: Q01DX001 (ip), vehicle: Klucel (hydroxypropylcellulose) (HPC)) was 106 % of control; the T/C (dose: 55.0 mg/kg/injection, schedule: Q01DX001 (ip), vehicle: Klucel (hydroxypropylcellulose) (HPC)) is 104 % of control.

For the compound `Nc1nn(-c2ccc(Br)cc2)c2cccc[n+]12`, the T/C reads like this: (dose: 12.5 mg/kg/injection, schedule: Q01DX009 (ip), vehicle: saline with Tween-80) 105 % of control; under setting [7], 115 % of control; (dose: 25.0 mg/kg/injection, schedule: Q01DX009 (ip), vehicle: saline with Tween-80) 100 % of control; (dose: 50.0 mg/kg/injection, schedule: Q01DX009 (ip), vehicle: other) 97 % of control; under setting [5], 100 % of control and 97 % of control.

Regarding `CC(C)C(=O)CCCN1C(=O)c2ccccc2C1=O`, the T/C by setting is: (dose: 12.5 mg/kg/injection, schedule: Q01DX009 (ip), vehicle: distilled water + Tween-80) 94 % of control; (dose: 25.0 mg/kg/injection, schedule: Q01DX009 (ip), vehicle: distilled water + Tween-80) 86 % of control; (dose: 50.0 mg/kg/injection, schedule: Q01DX009 (ip), vehicle: distilled water + Tween-80) 86 % of control; (dose: 100.0 mg/kg/injection, schedule: Q01DX009 (ip), vehicle: distilled water + Tween-80) 100 % of control.

Regarding `COC(=O)c1nc(=S)[nH]c(C(=O)OC)c1C(=O)c1cc(Cl)ccc1Cl`, the T/C is, setting by setting: under setting [9], 96 % of control; under setting [10], 101 % of control; under setting [11], 100 % of control.

Turning to `CC1(C)COC(=O)C(C#N)=C1CBr`, the T/C runs as follows: (dose: 12.5 mg/kg/injection, schedule: Q01DX005 (ip), vehicle: Klucel (hydroxypropylcellulose) (HPC)) 105 % of control; (dose: 25.0 mg/kg/injection, schedule: Q01DX005 (ip), vehicle: Klucel (hydroxypropylcellulose) (HPC)) 105 % of control; (dose: 50.0 mg/kg/injection, schedule: Q01DX005 (ip), vehicle: Klucel (hydroxypropylcellulose) (HPC)) 99 % of control and 116 % of control.
